Results from patent publication US20230212170A1, “INHIBITORS OF KRAS G12C PROTEIN AND USES THEREOF” (SHANGHAI ANTENGENE CORPORATION LIMITED, priority 2020, published 2023).
Where two headings read alike, the source gives them in different places.

Assays:
[1] = test system: MIA PaCa-2; assay: Tumor cell anti-proliferation assay (CTG assay), MIA PaCa-2; assay type: cell-based; conditions: read-out: IC50 MIA PaCa-2
Method: (§1) Assay 3: Tumor Cell Anti-Proliferation Assay (CTG Assay)
(§2) Tested tumor cell lines (MIA PaCa-2, NCI-H358, and A549) were seeded to the 96-well plate for overnight, then cells were treated with the test compound at 9 serially diluted concentrations in triplicate. After 3-days incubation with the test compound, the CTG assay was performed to evaluate the IC50. The 3 cell lines were tested in the same manner. Cisplatin were used as the positive control.
(§3) Day −1: Cell Plating for Cell Lines
(§4) 1. Adjust the cell concentration to the appropriated number with the medium, and for each well of a 96-well plate, add 90 μl cell suspensions (Cell concentration will be adjusted according to the data base or density optimization assay). 2. Incubate the plates for overnight in humidified incubator at […] with 5% CO2.
(§5) Day 0: T0 Plate Reading and Compound Treatment
(§6) 3. Add 10 μL culture medium to each well of plate A for T0 reading.
(§7) 4. Equilibrate the plate and its content at RT for approximately 30 min.
(§8) 5. Add 50 μL CellTiter-Glo® Reagent to each well for T0 reading.
(§9) 6. Mix contents for 2 minutes on an orbital shaker to facilitate cell lysis.
(§10) 7. Allow the plate to incubate at room temperature for 10 minutes to stabilize the luminescent signal. Note: Uneven luminescent signal within standard plates can be caused by temperature gradients, uneven seeding of cells or edge effects in multiwall plates.
(§11) 8. Place a black BackSeal sticker to the bottom of each plate.
(§12) 9. Record luminescence using an Envision Multi Label Reader.
(§13) 10. Dilute the test compound and the positive control (Cisplatin). Add 10 μL of 10× test compound working solutions into the corresponding wells. Incubate the test plates in the humidified incubator at 37° C. with 5% Co2.
(§14) Day 3: Plate Reading for 3-Day Assay
(§15) 11. Monitor under the microscope to make sure that the cells in control wells are healthy.
(§16) 12. After three days incubation, add 50 μL CellTiter-Glo® Reagent to each well.
(§17) 13. Mix contents for 2 minutes on an orbital shaker to facilitate cell lysis.
(§18) 14. Allow the plate to incubate at room temperature for 10 minutes to stabilize the luminescent signal.
(§19) 15. Note: Uneven luminescent signal within standard plates can be caused by temperature gradients, uneven seeding of cells or edge effects in multiwall plates.
(§20) 16. Place a black BackSeal sticker to the bottom of each plate.
(§21) 17. Record luminescence using an Envision Multi Label Reader.
(§22) In order to calculate IC50, a dose-response curve was fitted using nonlinear regression model with a sigmoidal dose response. The formula of the surviving rate is shown below, and the IC50 was automatically produced by GraphPad Prism 5.0.
(§23) The surviving rate […]=(LumTest compound−LumMedium control)/(LumNone treated-LumMedium control)×100%.
(§24) LumNone treated-LumMedium control is set as 100% o and LumMedium control is set as […]. T0 value will be presented as percentage of LumNone treated.

[2] = biological target: KRAS G12C (Homo sapiens, UniProt P01116, G12C); assay: KRAS GDP FI assay; assay type: biochemical; conditions: kinetic reading Ex580/Em620 for 120 min
Text: Assay 2: KRAS GDP FI Assay
1. Prepare compound dilution plate.
2. Transfer Inhibitor/DMSO to assay plate by Echo.
3. Prepare 1× assay buffer.
4. Prepare KRAS G12C mix & SOS1 mix & GTP mix & detection reagent mix.
5. Add KRAS G12C mix, SOS1 mix, GTP mix.
6. Add detection reagent mix to assay plate.

[3] = test system: NCI-H358; assay: Tumor cell anti-proliferation assay (CTG assay), NCI-H358; assay type: cell-based; conditions: read-out: IC50 NCI-H358
Method: as §1, §2, §3, §4, §5, §6, §7, §8, §9, §10, §11, §12, §13, §14, §15, §16, §17, §18, §19, §20, §21, §22, §23, §24

[4] = MIA PaCa-2, 3-days incubation, CTG
[5] = NCI-H358, 3-days incubation, CTG
[6] = Homo sapiens, MIA PaCa-2, 72 h, MIA PaCa-2, 3-days incubation, CTG

Row | Molecule | IC50 [2] | IC50 [1, 6] | also measured
1 | 2-((S)-1-acryloyl-4-(7-(8-chloronaphthalen-1-yl)-2-(((2S,4R)-4-fluoro-1-methylpyrrolidin-2-yl) [Compound 25-a] |  |  | IC50 [1, 4]: > 10 nM
2 | 2-((S)-1-acryloyl-4-(7-(8-chloronaphthalen-1-yl)-2-(((2S,4R)-4-fluoro-1-methylpyrrolidin-2-yl) [Compound 25-b] | 37 nM |  | IC50 [1, 4]: 1120 nM
3 | C=CC(=O)N1CCN(c2nc(OC[C@@H]3CCCN3C)nc3c(=O)n(-c4cccc5cccc(Cl)c45)c(C(F)(F)F)nc23)[C@@H](C)C1 (single isomer, unassigned) [Compound 24-a] |  |  | IC50 [3, 5]: 407 nM
4 | C=CC(=O)N1CCN(c2nc(OC[C@@H]3CCCN3C)nc3c(=O)n(-c4cccc5cccc(Cl)c45)c(C(F)(F)F)nc23)[C@@H](C)C1 (single isomer, unassigned) [Compound 24-b] |  |  | IC50 [3, 5]: 1460 nM
5 | C=CC(=O)N1CCN(c2nc(OC[C@@H]3CCCN3C)nc3c(=O)n(-c4cccc5cccc(Cl)c45)c(C)nc23)[C@@H](C)C1 (single isomer, unassigned) [Compound 26-a] |  | 4380 nM | 
6 | C=CC(=O)N1CCN(c2nc(OC[C@@H]3CCCN3C)nc3c(=O)n(-c4cccc5cccc(Cl)c45)c(C)nc23)[C@@H](C)C1 (single isomer, unassigned) [Compound 26-b] | 1500 nM |  | IC50 [1, 4]: 2890 nM
7 | C=CC(=O)N1CCN(c2nc(OC[C@@H]3CCCN3C)nc3c(=O)n(-c4cccc5cccc(Cl)c45)c(CC)nc23)[C@@H](C)C1 (single isomer, unassigned) [Compound 27-a] |  | 2890 nM | 
8 | C=CC(=O)N1CCN(c2nc(OC[C@@H]3CCCN3C)nc3c(=O)n(-c4cccc5cccc(Cl)c45)c(CC)nc23)[C@@H](C)C1 (single isomer, unassigned) [Compound 27-b] | 900 nM |  | IC50 [1, 4]: 2690 nM
9 | C=CC(=O)N1C[C@H](C)N(c2nc(OC[C@@H]3CCCN3C)nc3c(=O)n(-c4cccc5cccc(Cl)c45)c(C(F)(F)F)nc23)[C@@H](C)C1 (single isomer, unassigned) [Example 29-a] | 89 nM |  | IC50 [3, 5]: 148 nM
10 | C=CC(=O)N1CCN(c2nc(OC[C@@H]3CCCN3C)nc3c(=O)n(-c4cccc5cccc(Cl)c45)c(C(F)(F)F)nc23)C[C@@H]1CC#N (single isomer, unassigned) [Example 32-a] |  | 3720 nM | 
11 | C=CC(=O)N1CCN(c2nc(OC[C@@H]3CCCN3C)nc3c(=O)n(-c4cccc5cccc(Cl)c45)c(C(F)(F)F)nc23)C[C@@H]1CC#N (single isomer, unassigned) [Example 32-b] | 83 nM |  | IC50 [1, 4]: 188 nM
12 | C=CC(=O)N1CCN(c2nc(OC[C@@H]3C[C@@H](F)CN3C)nc3c(=O)n(-c4cccc5cccc(Cl)c45)c(C(F)(F)F)nc23)[C@@H](C)C1 (single isomer, unassigned) [Example 36-a] | 155 nM |  | 
13 | C=CC(=O)N1CCN(c2nc(OC[C@@H]3CCCN3C)nc3c(=O)n(-c4ccccc4F)c(C(F)(F)F)nc23)[C@@H](C)C1 (single isomer, unassigned) [Example 40-b] | 405 nM |  | 
14 | C=CC(=O)N1CCN(c2nc(OC[C@@H]3CCCN3C)nc3c(=O)n(-c4cccc5cccc(Cl)c45)c(C(F)(F)F)nc23)[C@@H](C)C1 [Compound 24, 8-((S)-4-acryloyl-2-methylpiperazin-1-yl)-3-(8-chloronaphthalen-1-yl)-6-(((S)-1-methylpyrrolidin-2-yl)methoxy)-2-(trifluoromethyl)pyrimido[5,4-d] pyrimidin-4(3H)-one] | 132 nM | 480 nM | 
15 | C=CC(=O)N1C[C@H](C)N(c2nc(OC[C@@H]3CCCN3C)nc3c(=O)n(-c4cccc5cccc(Cl)c45)c(C)nc23)[C@@H](C)C1 [Compound 28, 8-((2S,6S)-4-acryloyl-2,6-dimethylpiperazin-1-yl)-3-(8-chloronaphthalen-1-yl)-2-methyl-6-(((S)-1-methylpyrrolidin-2-yl)methoxy)pyrimido[5,4-d]pyrimidin-4(3H)-one] | 190 nM | 1500 nM | 
16 | C=CC(=O)N1CCN(c2nc(OC[C@@H]3CCCN3C)nc3c2CCCC(c2c(C)ccc4[nH]ncc24)C3)C[C@@H]1CC#N (stereo partly drawn) [Example 30, 2-((2S)-1-acryloyl-4-(8-(5-methyl-1H-indazol-4-yl)-2-(((S)-1-methylpyrrolidin-2-yl)methoxy)-6,7,8,9-tetrahydro-5H-cyclohepta[d]pyrimidin-4-yl)piperazin-2-yl)acetonitrile] | 124 nM | 72.7 nM | 
17 | C=CC(=O)N1CCN(c2nc(OC[C@@H]3CCCN3C)nc3c(=O)n(-c4cccc5cccc(F)c45)c(C(F)(F)F)nc23)C[C@@H]1CC#N [Example 37, 2-((S)-1-acryloyl-4-(7-(8-fluoronaphthalen-1-yl)-2-(((S)-1-methylpyrrolidin-2-yl)methoxy)-8-oxo-6-(trifluoromethyl)-7,8-dihydropyrimido[5,4-d]pyrimidin-4-yl)piperazin-2-yl) acetonitrile] | 178 nM |  | 
18 | C=CC(=O)N1CCN(c2nc(OC[C@@H]3CCCN3C)nc3c(=O)n(-c4c(F)cccc4OC)c(C(F)(F)F)nc23)C[C@@H]1CC#N [Example 38, 2-((S)-1-acryloyl-4-(7-(2-fluoro-6-methoxyphenyl)-2-(((S)-1-methylpyrrolidin-2-yl)methoxy)-8-oxo-6-(trifluoromethyl)-7,8-dihydropyrimido[5,4-d]pyrimidin-4-yl)piperazin-2-yl)acetonitrile] | 494 nM |  | 
19 | C=CC(=O)N1CCN(c2nc(OC[C@@H]3CCCN3C)nc3c(=O)n(-c4cccc5cccc(C)c45)c(-c4ccccc4)nc23)C[C@@H]1CC#N [Example 39, 2-((S)-1-acryloyl-4-(7-(8-methylnaphthalen-1-yl)-2-(((S)-1-methylpyrrolidin-2-yl)methoxy)-8-oxo-6-phenyl-7,8-dihydropyrimido[5,4-d]pyrimidin-4-yl)piperazin-2-yl)acetonitrile] | 364 nM |  | 
20 | C=CC(=O)N1C[C@H](C)N(c2nc(OC[C@@H]3CCCN3C)nc3c(=O)n(-c4cn(C)c5ccccc45)c(C(F)(F)F)nc23)[C@@H](C)C1 [Example 43] |  |  | IC50 ([3]; Homo sapiens, NCI-H358, 72 h): 257 nM; IC50 ([1]; Homo sapiens, MIA PaCa-2, 72 h): 766 nM
